Source: US6716628B2, “Chondrogenesis promoters and indolin-2-one derivatives” (Chugai Seiyaku Kabushiki Kaisha, priority 1999, dated 2004)

Assays:
[1] = tested on: common mouse chondrocyte and adipocyte precursor cell line (CL-1); test: Uptake of 35S-labeled sulfuric acid into CL-1; assay type: cell-based; conditions: 10 μmol/L (A and F also 1 or 5 μmol/L), 48 h culture
[2] = tested on: common mouse chondrocyte and adipocyte precursor cell line (CL-1); test: Uptake of 35S-labeled sulfuric acid into CL-1; assay type: cell-based; conditions: 10 μmol/L (A and F also 1 or 5 μmol/L), 48 h culture, uptake in final 24 h
Protocol: The above-mentioned cell line CL-1 was cultured in a 96-well cell culturing plate (Wallac Corp.) for a liquid scintillation counter (Wallac Corp.) to a cell density of 1000 per well. The medium used was α-MEM (GIBCO Corp.) containing 100 U/mL of penicillin (Meiji Seika Co., Ltd.), 100 μg/mL of streptomycin (Banyu Pharmaceutical Corp.) and 10% fetal bovine serum (INTERGEN Corp.). When the CL-1 cells reached confluency, the medium was exchanged with one containing 10 μmol/L of compounds A, B, C, D, E, F and G, and after 24 hours, ^35S-labeled sulfuric acid was added at 0.5 μCi per well and culturing was continued. For compounds A and F, a medium was also prepared with a concentration of 1 or 5 μmol/L. After 24 hours, the medium was discarded and the cell layer was fixed for 2 hours at room temperature using 0.2 mL of 5% paraformaldehyde (0.1 mol/L phosphate buffer solution (pH 7.4, Wako Pure Chemical Industries) containing 0.4% cetylpyridinium chloride (Wako Pure Chemical Industries). After discarding the fixing solution, it was washed once with the same solution and the washed solution was discarded. After adding 0.1 mL of scintillator (Wallac Corp.) to the cell layer and stirring, the radioactivity was measured with a scintillation counter (Wallac Corp.).

articular cartilage = conditions: cited from earlier work
[3] = tested on: experimental animal models with induced arthritis; conditions: administered intraarticularly; Lab. Invest. 78(2):133-142, 1998; cited from earlier work

Molecule	differentiation of CL-1 to adipocytes [1]	differentiation of CL-1 to chondrocytes (from 35S-labeled sulfuric acid uptake) [2]	synovitis (articular cartilage; in vivo)	arthritis-induced loss of proteoglycans in articular cartilage [3]	chondrogenesis (articular cartilage; intraarticularly administered, Lab. Invest. 71(2):279-290, 1994)
3R)-1-(2,2-diisopropoxyethyl)-3-((4-methylphenyl) aminocarbonylmethyl)-3-(N′-(4-methylphenyl)ureido)indolin-2-one [Compound E]	clearly suppress	clearly promote	–	–	–
CCOC(CN1C(=O)[C@](CC(=O)Nc2ccc(CC)cc2)(NC(=O)Nc2ccc(C)cc2)c2ccccc21)OCC [Compound B, (3R)-1-(2,2-diethoxyethyl)-3-(4-ethylphenyl)aminocarbonylmethyl-3-(N′-(4-methylphenyl)ureido)indolin-2-one]	clearly suppress	clearly promote	–	–	–
CCOC(CN1C(=O)[C@](CC(=O)Nc2ccc(N(C)C)cc2)(NC(=O)Nc2ccc(C)cc2)c2ccccc21)OCC [Compound C]	clearly suppress	clearly promote	–	–	–
COC(CN1C(=O)C(CC(=O)Nc2ccc(C)cc2)(NC(=O)Nc2ccc(C)cc2)c2ccccc21)OC (stereo not drawn) [Compound D]	clearly suppress	clearly promote	–	–	–
Cc1ccc(NC(=O)C[C@]2(NC(=O)Nc3ccc(C)cc3)C(=O)N(CC(OCCF)OCCF)c3ccccc32)cc1 [Compound F]	clearly suppress	clearly promote	–	–	–
Cc1ccc(NC(=O)C[C@]2(NC(=O)Nc3ccc(C)cc3)C(=O)N(CC(OCCCl)OCCCl)c3ccccc32)cc1 [Compound G, 3R)-1-(2,2-bis(2-chloroethoxy)ethyl)-3-((4-methylphenyl) 3-(N′-(4-methylphenyl)ureido)indolin-2-one]	clearly suppress	clearly promote	–	–	–
TGF-β	–	–	provoke synovitis	–	–
TGF-β1: one isoform of TGF-β (Transforming growth factor β)	–	–	–	suppresses	promote chondrogenesis
